What was measured:
morningglory (IPOCO) = experiment: Test J Compounds 2 and 6 alone and in combination with other herbicides, foliage spray; assay type: in vivo, Ipomoea coccinea; design: key: 0 = no effect, 100 = complete control; conditions: applied alone
Description: (§1) Seeds of test plants consisting of barnyardgrass (ECHCG; Echinochloa crus-galli (L.) Beauv.), blackgrass (ALOMY; Alopecurus myosuroides Huds.), Surinam grass (BRADC; Urochloa decumbens (Staph) R. D. Webster, previously named Brachiaria decumbens Stapf), cocklebur (XANST, Xanthium strumarium L.), corn (ZEAMD, Zea mays L. cv. ‘Pioneer 33G26’), large crabgrass (DIGSA, Digitaria sanguinalis (L.) Scop.), giant foxtail (SETFA, Setaria faberi Herrm.), lambsquarters (CHEAL, Chenopodium album L.), morningglory (IPOCO, Ipomoea coccinea L.), pigweed (AMARE, Amaranthus retroflexus L.), velvetleaf (ABUTH, Abutilon theophrasti Medik.) wheat (TRZAS, Triticum aestivum L. cv. ‘Recital’) and wild oat (AVEFA, Avena fatua L.) were planted in Redi-Earth® planting medium (Scotts Company, 14111 Scottslawn Road, Marysville, Ohio 43041) comprising spaghnum peat moss and vermiculite. Seeds of small-seeded species were planted about 1 cm deep; larger seeds were planted about 2.5 cm deep. Plants were grown in a greenhouse using supplemental lighting to maintain a photoperiod of about 14 hours; daytime and nighttime temperatures were about 24-30° C. and 22-25° C., respectively. Balanced fertilizer was applied through the watering system. […] Also listed in Table J are the expected effects for the mixtures calculated using Colby's Equation.

velvetleaf (ABUTH) = experiment: as above; assay type: in vivo, Abutilon theophrasti; design: key: 0 = no effect, 100 = complete control; conditions: applied alone
Description: Colby's Equation was used to calculate the expected additive herbicidal effect of the mixtures of Compound 6 with Harmony® Extra (i.e. a 2:1 mixture by weight of thifensulfuron-methyl and tribenuron-methyl). […]
as §1, with “vermiculite.” for “vermiculite. Seeds of small-seeded species were planted about 1 cm deep; larger seeds were planted about 2.5 cm deep. Plants were grown in a greenhouse using supplemental lighting to maintain a photoperiod of about 14 hours; daytime and nighttime temperatures were about 24-30° C. and 22-25° C., respectively. Balanced fertilizer was applied through the watering system.”

annual blugrass = experiment: Test F pre-/postemergence herbicide test; assay type: in vivo, Poa annua
Description: (§2) Seeds of plant species selected from annual blugrass (Poa annua L.), blackgrass (Alopecurus myosuroides Huds.), catchweed bedstraw (Gallium aparine L.), common chickweed (Stellaria media (L.) Vill./Cyr.), downy bromegrass (Bromus tectorum L.), green foxtail (Setaria viridis (L.) Beauv.), Italian ryegrass (Lolium multiflorum Lam.), kochia (Kochia scoparia (L.). Schrad.), lambsquarters (Chenopodium album L.), littleseed canarygrass (Phalaris minor Retz.), pigweed (Amaranthus retroflexus L.), Russian thistle (Salsola kali L. ssp. Ruthenica (Iljin) Soo), wild buckwheat (Polygonum convolvulus L.), wild mustard (Sinapis arvensis L.), wild oat (Avena fatua L.), windgrass (Apera spica-venti (L.) Beauv.), winter barley (Hordeum vulgare L.), and wheat (Triticum aestivum L.) were planted and treated preemergence with test chemicals formulated in a non-phytotoxic solvent mixture which included a surfactant.
(§3) At the same time, plants selected from these crop and weed species were treated with postemergence applications of some of the test chemicals formulated in the same manner. Plants ranged in height from 2 to 18 cm (1- to 4-leaf stage) for postemergence treatments. Treated plants and controls were maintained in a greenhouse for 12 to 14 days, after which time all species were compared to controls and visually evaluated. Plant response ratings, summarized in Table F, are based on a scale of 0 to 100 where 0 is no effect and 100 is complete control. A dash (-) response means no test result.

catchweed bedstraw = experiment: Test F pre-/postemergence herbicide test; assay type: in vivo, Gallium aparine
Description: as §2, §3

Italian ryegrass = experiment: Test F pre-/postemergence herbicide test; assay type: in vivo, Lolium multiflorum
Description: as §2, §3

Russian thistle = experiment: Test F pre-/postemergence herbicide test; assay type: in vivo, Salsola kali
Description: as §2, §3

Structure (SMILES): CCn1nc(C(C)(C)C)cc1C(=O)Nc1cc(C(=O)N(C)C)ccc1F [Compound 6, N-[5-[(dimethylamino)carbonyl]-2-fluorophenyl]-3-(1,1-dimethylethyl)-1-ethyl-1H-pyrazole-5-carboxamide]
- IPOCO Obsd. (morningglory (IPOCO); 62 g a.i./ha): 22
- IPOCO Obsd. (morningglory (IPOCO); 125 g a.i./ha): 28
- ABUTH Obsd. (velvetleaf (ABUTH); 62 g a.i./ha): 27
- ABUTH Obsd. (velvetleaf (ABUTH); 125 g a.i./ha): 47

Structure (SMILES): CCn1nc(C(C)(C)C)cc1C(=O)Nc1cc(C(=O)OC(C)C)c(F)cc1F [Compound 248]
- Plant response rating (0-100), Bluegrass (annual blugrass; Postemergence, 31 g ai/ha): 50
- Plant response rating (0-100), Bluegrass (annual blugrass; Postemergence, 62 g ai/ha): 50
- Plant response rating (0-100), Bluegrass (annual blugrass; Postemergence, 125 g ai/ha): 60
- Plant response rating (0-100), Bluegrass (annual blugrass; Postemergence, 250 g ai/ha): 70
- Plant response rating (0-100), Bluegrass (annual blugrass; Preemergence, 31 g ai/ha): 70
- Plant response rating (0-100), Bluegrass (annual blugrass; Preemergence, 62 g ai/ha): 70
- Plant response rating (0-100), Bluegrass (annual blugrass; Preemergence, 125 g ai/ha): 100
- Plant response rating (0-100), Bluegrass (annual blugrass; Preemergence, 250 g ai/ha): 100
- Plant response rating (0-100), Galium (catchweed bedstraw; Postemergence, 31 g ai/ha): 50
- Plant response rating (0-100), Galium (catchweed bedstraw; Postemergence, 62 g ai/ha): 50
- Plant response rating (0-100), Galium (catchweed bedstraw; Postemergence, 125 g ai/ha): 60
- Plant response rating (0-100), Galium (catchweed bedstraw; Postemergence, 250 g ai/ha): 60
- Plant response rating (0-100), Galium (catchweed bedstraw; Preemergence, 31 g ai/ha): 30
- Plant response rating (0-100), Galium (catchweed bedstraw; Preemergence, 62 g ai/ha): 50
- Plant response rating (0-100), Galium (catchweed bedstraw; Preemergence, 125 g ai/ha): 50
- Plant response rating (0-100), Galium (catchweed bedstraw; Preemergence, 250 g ai/ha): 60
- Plant response rating (0-100), Ryegrass, Italian (Italian ryegrass; Postemergence, 31 g ai/ha): 45
- Plant response rating (0-100), Ryegrass, Italian (Italian ryegrass; Postemergence, 62 g ai/ha): 55
- Plant response rating (0-100), Ryegrass, Italian (Italian ryegrass; Postemergence, 125 g ai/ha): 60
- Plant response rating (0-100), Ryegrass, Italian (Italian ryegrass; Postemergence, 250 g ai/ha): 65
- Plant response rating (0-100), Ryegrass, Italian (Italian ryegrass; Preemergence, 31 g ai/ha): 30
- Plant response rating (0-100), Ryegrass, Italian (Italian ryegrass; Preemergence, 62 g ai/ha): 50
- Plant response rating (0-100), Ryegrass, Italian (Italian ryegrass; Preemergence, 125 g ai/ha): 50
- Plant response rating (0-100), Ryegrass, Italian (Italian ryegrass; Preemergence, 250 g ai/ha): 60
- Plant response rating (0-100), Thistle (Russian thistle; Postemergence, 31 g ai/ha): 25
- Plant response rating (0-100), Thistle (Russian thistle; Postemergence, 62 g ai/ha): 30
- Plant response rating (0-100), Thistle (Russian thistle; Postemergence, 125 g ai/ha): 30
- Plant response rating (0-100), Thistle (Russian thistle; Postemergence, 250 g ai/ha): 40
- Plant response rating (0-100), Thistle (Russian thistle; Preemergence, 31 g ai/ha): 30
- Plant response rating (0-100), Thistle (Russian thistle; Preemergence, 62 g ai/ha): 30
- Plant response rating (0-100), Thistle (Russian thistle; Preemergence, 125 g ai/ha): 30
- Plant response rating (0-100), Thistle (Russian thistle; Preemergence, 250 g ai/ha): 45
